Reference: patent publication US20170082611A1, “Methods for Inhibiting Epithelial to Mesenchymal Transition by Inhibition of FOXS1” (Regenerative Research Foundation, priority 2015, published 2017)

Legend:
[1] = tested on: RPE cells; test: Screening assay for agents that induce EMT: RPE morphology by light microscope; type: cell-based, human; conditions: 10 ng/ml, 5 days, DMEM/F12 with 5% FBS
Experimental: RPE were plated at a confluency of 30,000 cells in 1 well of a 24-well plate in DMEM/F12 with 5% FBS, adding TGFβ (10 ng/ml) or TNFα (10 ng/ml), or both. After 5 days, RPE morphology was assessed by a light microscope.

[2] = tested on: p38; test: p38 immunostaining (localization) in RPE cells; conditions: DMEM 5% FBS, 5 days
[3] = tested on: hTERT HMEnt (HME) breast epithelial cell line; test: EMT and FOXS1 transcripts in breast epithelial cells
[4] = tested on: RPE cells; test: FOXS1 expression in EMT+p38 inhibitor condition; type: cell-based, human; conditions: TnT + p38 inhibitor, 5 days
[5] = tested on: RPE cells; test: p38 blockade in TnT-induced RPE EMT (masses and EMT transcripts); type: cell-based, human; conditions: TnT + 10 ng/ml SB202190, 5 days
Experimental: It was next reasoned that, if p38 is involved in the TnT-induced gene changes observed in SNAIL, SLUG and TWIST transcripts, then blocking p38 should result in the loss of TnT-induced EMT changes. Therefore an experiment was conducted to examine RPE-EMT with an additional condition of TnT+the p38 inhibitor SB202190.

[6] = tested on: Primary human RPE lines; test: qPCR of EMT and RPE fate transcripts in primary RPE cultured with NAM for 21 days; type: cell-based; conditions: 10 mM NAM, versus vehicle
Experimental: Cadaver donor globes were received from the National Disease Research Interchange (Philadelphia, Pa., USA), and RPE cells were isolated and grown to establish a RPE monolayer (Blenkinsop et al., (2015), Investigative Ophthalmology & Visual Science 56, 7085-7099; Blenkinsop et al., (2013), Methods Mol Biol 945, 45-65.). Primary human RPE lines were cultured in the presence of Nicotinamide (NAM) (Cat. #N0636; Sigma) at a concentration of 10 mM or vehicle (cell culture grade water) for 21 days. […] Additionally, RPE fate associated protein transcripts were tested by qPCR.

[7] = tested on: RPE cells; test: Effect of NAM in the TNT-induced EMT model, qPCR; type: cell-based, human; conditions: 10 mM NAM
Experimental: In a parallel experiment, the effect of NAM was tested in an EMT model. EMT was induced in RPE cells using 10 ng/ml TGFβ1 and TNFα. RPE cells were trypsinized and passaged into a 24 well plate. 24 hours after passaging, RPE cells were treated with TGFβ1 and TNFα (TNT condition) for 7 days. To test the effect of NAM, we added 10 mM NAM or vehicle to the medium used for EMT model (using TNT). EMT associated protein transcripts including FOXS1 were analyzed by qPCR.

TNFα
RPE morphology [1]: acquired a fibroblastic morphology | p38 localization [2]: found cytoskeletally

TGFβ: cytokine used at 10 ng/ml to induce EMT
RPE morphology [1]: acquired a fibroblastic morphology | FOXS1 transcript [3]: increased | p38 localization [2]: localized predominantly perinuclearly

Oc1ccc(-c2nc(-c3ccncc3)c(-c3ccc(F)cc3)[nH]2)cc1 [SB202190]
FOXS1 gene transcription [4]: elevated in the TnT condition, but not when the p38 inhibitor was added | SLUG transcription [5]: stayed at or near control levels | SNAIL transcription [5]: stayed at or near control levels | TWIST transcription [5]: stayed at or near control levels | growth of three dimensional masses [5]: did not grow

NC(=O)c1cccnc1 [NAM, Nicotinamide]
EMT associated marker FOXS1 [6]: inhibited | EMT associated marker SNAIL [6]: inhibited | RPE marker BEST1 expression [6]: increased expression | RPE marker RPE65 expression [6]: increased expression | EMT marker SNAIL ([7]; as early as day 1 post induction of EMT): inhibited | EMT marker FOXS1 ([7]; by day 3 post induction of EMT): clear inhibition | EMT marker SLUG ([7]; by day 5 post induction of EMT): clear inhibition
